This is an account of results in patent US8124357B2 (priority 2005, dated 2012).

The subject of this experiment is Neuro-2A cells. Format: cell-based.

Each structure is given as a SMILES string.

For `CC1=C(/C=C/C(C)=C/C=C/C(C)=C/C(=O)O)C(C)(C)CCC1` [all trans retinoic acid, All Trans-Retinoic acid], the “BoNT/A SNAP25197-cleavage product (uptake of BoNT/A) after differentiation reagent” value is “increase”.
